Laboratory results published in US20220183287A1, “METHODS FOR KILLING PESTS” (The United States of America, as represented by the …, priority 2020, published 2022).
Marks after values point to notes of the source that are not given here.

What was measured:
M. incognita eggs = assay: Microwell assay: eggs immersed in compounds, hatch and activity of hatched J2; format: in vivo, Meloidogyne incognita; conditions: 0.1%
Experimental: (§1) All chemicals were used without further purification.
(§2) These are reported as 0.1% herein.
(§3) The nematodes were then incubated at 26° C. […] Two trials were conducted for each assay.
(§4) The assumptions of the model were checked.

Caenorhabditis elegans = conditions: produced by Bacillus nematocida; cited from earlier work
[1] = test system: H. glycines second-stage juveniles; assay: Microwell assay: previously hatched J2 immersed in compounds, activity and viability
Experimental: The isolate of H. glycines race 3, originally isolated in Maryland, was maintained on soybean (Glycine max cv. ‘Essex’). As previously described (Wen, Y., et al. Plant Disease, 103: 2191-2198 (2019)), the roots were gently rubbed in water to dislodge cysts and mature females. The egg suspensions were then poured through nested sieves (#20 over /#60; pore sizes 850 μm and 250 μm diam., respectively) into a 454 g/liter sucrose solution. After 15 min, the cysts and females and cysts that floated to the top were collected, rinsed in water, and crushed with a rubber stopper on a #60 sieve (250-μm diam. pore size) that was partially submerged in distilled water. The egg suspension was washed through nested #230 over #500 sieves (pore sizes 63 μm and 25-μm diam., respectively). The eggs were collected in distilled water, and J2 hatched as described above.
(§5) Compounds for the studies were purchased from three different companies: methyl benzoate, CAS Number 93-58-3, ≥99% purity; Tween 20, CAS Number: 9005-64-5; Tween 80, CAS Number: 9005-65-6; ethyl benzoate, CAS Number: 93-89-0, natural, ≥99% purity, FCC, FG; vinyl benzoate, CAS Number: 769-78-8, ≥99% purity; n-propyl benzoate, CAS Number: 2315-68-6, 99% purity; n-butyl benzoate, CAS Number: 136-60-7, 99% purity; benzyl benzoate, CAS Number: 120-51-4, natural, ≥99% purity, FCC, FG; methyl 2-methylbenzoate, CAS Number: 89-71-4, 99% purity; methyl 2-chlorobenzoate, CAS Number: 610-96-8, ≥98% purity; methyl 2-methoxybenzoate, CAS Number: 606-45-1, 99% purity and methyl 2-nitrobenzoate, CAS Number: 606-27-9, 98% purity were purchased from Sigma-Aldrich (St. Louis, Mo.). Compounds, iso-butyl benzoate, CAS Number 120-50-3, >98% purity; n-pentyl benzoate, CAS Number: 2049-96-9, ≥98% purity; and n-hexyl benzoate, CAS Number: 6789-88-4, ≥98% purity were purchased from Alfa Aesar (Tewksbury, Mass.). The compounds methyl 3-methoxybenzoate (methyl m-anisate), CAS Number: 5368-81-0; 97% and methyl 3-methylbenzoate (methyl m-toluate), CAS Number: 99-36-5, 97% purity were purchased from TCI America (Portland, Oreg.). All chemicals were used without further purification. Deionized water (DI) containing 1% emulsifier (v/v), Tween 20 and Tween 80, at 1:1 ratio was used to make different VOCs (volatile organic compounds) water solutions and also used as blank control.
(§6) For tests with individual compounds, the concentration of each compound was 0.1% before placement into wells; the final concentration in the wells was 0.095% after addition to eggs or J2 suspended in water. These are reported as 0.1% herein. An exception was Trial 2, M. incognita J2 activity and viability (Table 2): the final concentration was 0.1% after placement in wells. Low concentrations were selected for assays of combined compounds to determine if the combinations would increase nematotoxicity.
(§7) Laboratory assays were conducted in 96-well polystyrene plates following general procedures described in Wen et al. (2019). Each well received approximately 35 J2 (for previously hatched J2 assays) or 35 eggs that each contained either a first-stage juvenile (J1) or a J2. The plates were covered with plastic adhesive sealing film (Excel Scientific, Inc., Victorville Calif.) and then with the plate lids. Parafilm (Bemis, Neenah, Wis.) was used to seal the plates. The nematodes were then incubated at 26° C. […] Following the counts on Day 2, the treatments were removed and the J2 rinsed twice with SDW and incubated in the second rinse. […] Two trials were conducted for each assay.
Statistical analyses: The data were analyzed as either a general linear model using JMP or a generalized linear model for the best distribution to fit the residual using Proc Glimmix (Sas Institute). The assumptions of the model were checked. If not met, then appropriate statistical techniques were used so that data could met the assumptions of the models. In Sas, mean comparisons were done with Sidak adjusted p-values to hold the experiment-wise error at 0.05.

Heterodera glycines eggs = assay: Microwell assay: eggs immersed in compounds, hatch and activity of hatched J2; format: in vivo; conditions: 0.1%
Experimental: as §1, §2, §3, §4

[2] = test system: M. incognita second-stage juveniles; assay: Microwell assay: previously hatched J2 immersed in compounds, activity and viability
Experimental: Nematode cultures: As described in Meyer et al. (Meyer, S. L. F., et al., Nematropica, 46: 85-96 (2016)), M. incognita race 1 (originally isolated in Maryland) was maintained in a greenhouse (24° to 29° C.; natural and supplemental lighting combined for a 16-h daylength) on susceptible cayenne pepper (Capsicum annuum) TA-136′ plants. All greenhouse experiments described herein were conducted under the same conditions. Two to three months after pepper plant inoculation, egg masses were picked from roots. Eggs were separated by 5 min immersion in 0.6% sodium hypochlorite, followed by a rinse in sterile distilled water (SDW). To collect second-stage juveniles (J2) for microwell assays, the surface-sterilized eggs were placed in a hatching chamber (Spectra/Mesh Nylon Filter, openings 25-μm-diam.; Spectrum Laboratories Inc., Rancho Dominguez, Calif.) set in an autoclaved dish that was placed on a rotary shaker for 3 days at 35 rpm. For some M. incognita and H. glycines assays, 25 or […] kanamycin monosulfate (Phytotechnology Laboratories, Shawnee Mission, Kans.) was added to the hatching chamber to prevent growth of bacteria. The collected J2 were then rinsed with water to remove the kanamycin monosulfate.
as §5, §6, §7

M. incognita = conditions: in vivo; cited from earlier work
X americanum adults = conditions: in vivo; cited from earlier work
C. elegans = conditions: during the first hours of incubation; cited from earlier work
[3] = hatched J2 per well, about 35 eggs per well
[4] = 0.1%, previously hatched J2 in aqueous solution

O=C(OCc1ccccc1)c1ccccc1 [BB, Benzyl benzoate]
% Active Day 2 (M. incognita eggs; J2 hatched from immersed eggs): 67.0 ^ab % | % Active Day 5 (M. incognita eggs; J2 hatched from immersed eggs): 33.5 ^cd % | % Active Day 7 (M. incognita eggs; J2 hatched from immersed eggs): 24.8 ^b % | Hatch Day 2 (M. incognita eggs; [3]): 2.6 ^cd | Hatch Day 5 (M. incognita eggs; [3]): 4.2 ^cde | Hatch Day 7 (M. incognita eggs; [3]): 4.1 ^de | nematode attraction (Caenorhabditis elegans): nematode attractant | reduction in % viable J2 compared with the Tween control ([1]; 0.1%, Day 3 following water rinse): 33% | % Active Day 1 [1, 4]: 66.4 ^bc % | % Active Day 2 [1, 4]: 60.1 ^abc % | viability at 0.1 % ([1]; Heterodera glycines, 72 h, read-out: % Viable Day 3 rinsed): 41.2% | % Active Day 2 (Heterodera glycines eggs; J2 hatched from immersed eggs): 15.2 ^cd % | % Active Day 5 (Heterodera glycines eggs; J2 hatched from immersed eggs): 17.0 ^cde % | % Active Day 7 (Heterodera glycines eggs; J2 hatched from immersed eggs): 13.5 ^bc % | Hatch Day 2 (Heterodera glycines eggs; [3]): 4.1 ^cd | Hatch Day 5 (Heterodera glycines eggs; [3]): 4.5 ^cd | Hatch Day 7 (Heterodera glycines eggs; [3]): 4.6 ^cd | pest or weed control at 0.1 % (Heterodera glycines eggs; Heterodera glycines, 168 h, Day 7, read-out: egg hatch suppression compared with the Tween control): 64 to 80% | % Viable Day 3 rinsed ([2]; 0.1%, after Day 2 water rinse): did not show a significant difference | % Active Day 1 [2, 4]: 83.2 ^a % | % Active Day 2 [2, 4]: 83.1 ^a % | viability at 0.1 % ([2]; Meloidogyne incognita, 72 h, read-out: % Viable Day 3 rinsed): 79.9%

CC(=O)c1c(O)cc(O)c(C(C)=O)c1O [DAPG, 2,4-diacetylphloroglucinol]
egg hatch (M. incognita): decreased egg hatch | toxicity to adults (X americanum adults): toxic | hatch (C. elegans): stimulated hatch
